The structures appear in SMILES notation. Where only a bound is given, the exact number is not on record here.

What is called EC30 is the point of the concentration-response curve where the effect stands at 30%.

T1 sequence (P13569 with tags, fused parts or gaps DEL508-508): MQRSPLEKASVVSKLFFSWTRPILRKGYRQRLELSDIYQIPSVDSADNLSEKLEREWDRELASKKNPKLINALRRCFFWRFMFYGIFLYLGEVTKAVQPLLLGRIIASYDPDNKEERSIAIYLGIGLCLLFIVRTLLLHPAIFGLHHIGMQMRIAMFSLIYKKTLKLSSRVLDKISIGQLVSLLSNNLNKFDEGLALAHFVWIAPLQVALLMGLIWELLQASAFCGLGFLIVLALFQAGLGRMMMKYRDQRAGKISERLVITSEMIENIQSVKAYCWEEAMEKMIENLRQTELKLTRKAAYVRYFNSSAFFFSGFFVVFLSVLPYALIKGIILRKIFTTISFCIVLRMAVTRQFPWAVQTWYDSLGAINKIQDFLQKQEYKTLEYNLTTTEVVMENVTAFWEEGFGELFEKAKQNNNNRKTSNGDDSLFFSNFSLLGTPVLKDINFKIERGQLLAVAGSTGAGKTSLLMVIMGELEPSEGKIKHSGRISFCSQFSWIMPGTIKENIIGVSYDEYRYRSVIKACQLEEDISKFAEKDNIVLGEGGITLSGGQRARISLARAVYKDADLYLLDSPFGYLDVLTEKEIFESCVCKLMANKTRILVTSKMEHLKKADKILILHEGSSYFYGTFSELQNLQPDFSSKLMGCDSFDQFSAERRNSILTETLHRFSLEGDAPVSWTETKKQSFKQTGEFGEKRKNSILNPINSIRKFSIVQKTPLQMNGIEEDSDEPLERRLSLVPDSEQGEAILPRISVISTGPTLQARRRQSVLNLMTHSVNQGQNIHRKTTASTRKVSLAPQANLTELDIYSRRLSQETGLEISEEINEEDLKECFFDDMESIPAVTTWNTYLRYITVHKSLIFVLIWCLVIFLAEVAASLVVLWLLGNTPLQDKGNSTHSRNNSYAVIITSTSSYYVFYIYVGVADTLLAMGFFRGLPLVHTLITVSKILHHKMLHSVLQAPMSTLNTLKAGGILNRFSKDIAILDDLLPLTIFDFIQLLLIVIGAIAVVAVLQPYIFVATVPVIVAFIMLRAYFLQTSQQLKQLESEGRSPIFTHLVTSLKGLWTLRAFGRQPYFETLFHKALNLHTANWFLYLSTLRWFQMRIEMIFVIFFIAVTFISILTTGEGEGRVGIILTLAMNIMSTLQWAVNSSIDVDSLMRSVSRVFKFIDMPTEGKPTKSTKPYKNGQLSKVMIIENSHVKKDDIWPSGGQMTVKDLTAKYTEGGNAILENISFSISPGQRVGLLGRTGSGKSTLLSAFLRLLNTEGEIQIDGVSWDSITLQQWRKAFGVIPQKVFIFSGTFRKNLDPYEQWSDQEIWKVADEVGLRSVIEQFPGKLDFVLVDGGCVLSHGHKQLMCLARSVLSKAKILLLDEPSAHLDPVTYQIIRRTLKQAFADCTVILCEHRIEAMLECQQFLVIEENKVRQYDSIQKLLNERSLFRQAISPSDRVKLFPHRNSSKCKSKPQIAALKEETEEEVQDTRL

One assay has as its target T1, F508del (Homo sapiens, UniProt P13569, DEL508-508).
T1 construct: expressed in transfected cells
Put plainly: Protocol 2: FRET membrane potential optical assay (VIPR), identification of correction compounds. It is filed as cell-based. To be noted: F508del CFTR modulator activity; compounds of Table 1; read-out: EC30. Put shortly: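 Correction of the F508del trafficking defect is scored as forskolin (10 μM)/genistein (20 μM)-stimulated Cl^− efflux in NIH3T3 mouse fibroblasts after a 16 hr, 37° C. compound exposure. Depolarization was followed optically using voltage-sensing FRET dyes.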
As to `CC1CN(c2ncccc2C(=O)NS(=O)(=O)c2cccc(Oc3ccccc3F)n2)C(C)(C)C1` (stereo not drawn) [Compound 2015, N—[[6-(2-fluorophenoxy)-2-pyridyl]sulfonyl]-2-(2,2,4-trimethylpyrrolidin-1-yl)pyridine-3-carboxamide], the EC30 was under 3000 nM. The same measure, in the same setting: the same measure for `Cc1cc(-c2ccc(C(=O)NS(=O)(=O)c3cccc(N)n3)c(N3C[C@@H](C)CC3(C)C)n2)cc(OCCOC(C)C)n1` [Compound 2079, N-[(6-amino-2-pyridyl)sulfonyl]-6-[2-(2-isopropoxyethoxy)-6-methyl-4-pyridyl]-2-[(4S)-2,2,4-trimethylpyrrolidin-1-yl]pyridine-3-carboxamide]: under 3000 nM. The same measure, in the same setting: in the case of `CC1CN(c2ncccc2C(=O)NS(=O)(=O)c2cccc(Nc3ccc(F)c(C#N)c3)n2)C(C)(C)C1` (stereo not drawn) [Compound 2316, N—[[6-(3-cyano-4-fluoro-anilino)-2-pyridyl]sulfonyl]-2-(2,2,4-trimethylpyrrolidin-1-yl)pyridine-3-carboxamide] it was under 3000 nM; in that of `Cc1cc(-c2ccc(C(=O)NS(=O)(=O)c3cccc(N)n3)c(N3C[C@@H](C)CC3(C)C)n2)cnc1N(C)C(C)C` [Compound 2684], under 3000 nM; in that of `CC(C)COc1cc(F)cc(-c2ccc(C(=O)NS(=O)(=O)N3CC[C@@H](N)C3)c(N3CCCC3(C)Cc3ccccc3)n2)c1` (single isomer, unassigned) [Compound 2325], under 3000 nM.

The assay is the same for the next values; noted with them: Table 3; compounds of Table 1 as modulators of CFTR activity; protocol not stated.
With `COc1ccc(C)c(-c2ccc(C(=O)NS(=O)(=O)c3cccc(N)n3)c(N3CC(C)CC3(C)C)n2)c1` (stereo not drawn) [Compound 470, N-[(6-amino-2-pyridyl)sulfonyl]-6-(5-methoxy-2-methyl-phenyl)-2-(2,2,4-trimethylpyrrolidin-1-yl)pyridine-3-carboxamide], the EC30 result was “+++ (“+++” means <3 uM)”. Still for that read-out and setting: the same measure for `CC(C)(C)c1ccc(C(=O)NS(=O)(=O)c2cccc(N)c2)c(-c2ccc(C(F)(F)F)cc2)n1` [Compound 129, N-(3-aminophenyl)sulfonyl-6-tert-butyl-2-[4-(trifluoromethyl)phenyl]pyridine-3-carboxamide]: “++ (“++” means between 3 uM and 10 uM)”; for `CC(C)COc1cc(F)cc(-c2ccc(C(=O)NS(=O)(=O)c3cccc(N)n3)c(N3C(C)CC(c4ccccc4)C3C)n2)c1` (stereo not drawn) [Compound 711, N-[(6-amino-2-pyridyl)sulfonyl]-2-(2,5-dimethyl-3-phenyl-pyrrolidin-1-yl)-6-(3-fluoro-5-isobutoxy-phenyl)pyridine-3-carboxamide]: “+++ (“+++” means <3 uM)”. Turning to `CC1CN(c2nc(-c3ccnc(OC(C)C)c3)ccc2C(=O)NS(=O)(=O)c2cccc(N)n2)C(C)(C)C1` (stereo not drawn) [Compound 402, N-[(6-amino-2-pyridyl)sulfonyl]-6-(2-isopropoxy-4-pyridyl)-2-(2,2,4-trimethylpyrrolidin-1-yl)pyridine-3-carboxamide], the EC30 entry is “+++ (“+++” means <3 uM)”. Still for that read-out and setting: in the case of `Cc1cc(C)c(Oc2nc(C(C)(C)C)ccc2C(=O)NS(=O)(=O)c2cccc(N)c2)c(C)c1` [Compound 294, N-(3-aminophenyl)sulfonyl-6-tert-butyl-2-(2,4,6-trimethylphenoxy)pyridine-3-carboxamide] it was “+++ (“+++” means <3 uM)”; in that of `Cc1cc(C)c(Oc2nc(C(C)(C)C)ccc2C(=O)NS(=O)(=O)c2cccc(N(C)C)n2)c(C)c1` [Compound 468, 6-tert-butyl-N-[[6-(dimethylamino)-2-pyridyl]sulfonyl]-2-(2,4,6-trimethylphenoxy)pyridine-3-carboxamide], “+++ (“+++” means <3 uM)”; in that of `COc1ncccc1S(=O)(=O)NC(=O)C1c2ccccc2CN1Cc1c(C)cc(C)cc1C` (stereo not drawn) [Compound 218, N-[(2-methoxy-3-pyridyl)sulfonyl]-2-[(2,4,6-trimethylphenyl)methyl]isoindoline-1-carboxamide], “++ (“++” means between 3 uM and 10 uM)”.
